# Columns and labels:
# [1] = tested on: Human acute T lymphocytic leukemia cells (Molt-4); assay: Tumor cell proliferation inhibition (CellTiter-Meiluncell Luminescent Cell Viability Assay), Molt-4
# Experimental: The tumor cells used herein were cultured in a cell culture medium listed in table 2 at 37°C in an incubator with 5% CO2. Prior to experimentation, all cell lines used were correctly identified by STR profiling, and tested negative for mycoplasma contamination using a mycoplasma detection kit through routine screenings.
# (§1) On the following day, the test compounds of the present disclosure were subjected to serial dilution. […] Subsequently, 0.5 µL of the test compound dilution was transferred into the 96-well plate containing the cells, with each well containing 100 µL of cell culture medium. […] Into the 96-well plate, the diluted test compounds and corresponding detection reagents were added, resulting in final test compound concentrations of 500 nM and 10 nM, respectively. The experimental procedure is described below using the diluted 2 µM test compound as an example.
# (§2) After the cells were treated with the compounds of the present disclosure for a specified period (the treatment durations were shown in Table 3), the cell viability assay reagent was added to the culture medium according to the kit's instructions to determine cell viability. […] All controls were treated using the same procedure as the compounds of the present disclosure. The growth inhibition curves for the compounds of the present disclosure were plotted using Prism GraphPad software, and the IC50 values were calculated therefrom.
# [2] = biological target: T1, IKZF3 (Homo sapiens, UniProt Q96SW2+Q9UKT9); assay: Western-blot assay of substrate protein degradation in hPBMCs, IKZF3; format: cell-based; conditions: 24 hours of compound treatment, 50 nM and 500 nM tested (concentration behind the class not stated)
# T1 construct: endogenous in cells; host or cells: hPBMCs (Milecell Biotechnologies)
# [3] = biological target: T2, GSPT1 (Homo sapiens, UniProt P15170+Q96SW2); assay: Western-blot assay of substrate protein degradation in hPBMCs, GSPT1; format: cell-based; conditions: 24 hours of compound treatment, 50 nM and 500 nM tested (concentration behind the class not stated)
# T2 construct: endogenous in cells; host or cells: hPBMCs (Milecell Biotechnologies)
# [4] = biological target: T3, WEE1 (Homo sapiens, UniProt P30291+Q96SW2); assay: Western-blot assay of substrate protein degradation in hPBMCs, WEE1; format: cell-based; conditions: 24 hours of compound treatment, 50 nM and 500 nM tested (concentration behind the class not stated)
# T3 construct: endogenous in cells; host or cells: hPBMCs (Milecell Biotechnologies)
# [5] = tested on: Kasumi-1; assay: Tumor cell proliferation inhibition (CellTiter-Meiluncell Luminescent Cell Viability Assay), Kasumi-1; conditions: Homo sapiens
# Experimental: as §1, §2
# [6] = biological target: T4, CK1α (Homo sapiens, UniProt P48729+Q96SW2); assay: Western-blot assay of substrate protein degradation in hPBMCs, CK1α; format: cell-based; conditions: 24 hours of compound treatment, 50 nM and 500 nM tested (concentration behind the class not stated)
# T4 construct: endogenous in cells; host or cells: hPBMCs (Milecell Biotechnologies)
# [7] = biological target: T5, IKZF1 (Homo sapiens, UniProt Q13422+Q96SW2); assay: Western-blot assay of substrate protein degradation in hPBMCs, IKZF1; format: cell-based; conditions: 24 hours of compound treatment, 50 nM and 500 nM tested (concentration behind the class not stated)
# T5 construct: endogenous in cells; host or cells: hPBMCs (Milecell Biotechnologies)
# [8] = biological target: T6, IKZF2 (Homo sapiens, UniProt Q96SW2+Q9UKS7); assay: Western-blot assay of substrate protein degradation in hPBMCs, IKZF2; format: cell-based; conditions: 24 hours of compound treatment, 50 nM and 500 nM tested (concentration behind the class not stated)
# T6 construct: endogenous in cells; host or cells: hPBMCs (Milecell Biotechnologies)
# [9] = tested on: CCRF-CEM; assay: Tumor cell proliferation inhibition (CellTiter-Meiluncell Luminescent Cell Viability Assay), CCRF-CEM; conditions: Homo sapiens
# [10] = tested on: Human breast cancer cells (MDA-MB-231); assay: Tumor cell proliferation inhibition (CellTiter-Meiluncell Luminescent Cell Viability Assay), MDA-MB-231
# T2 sequence (P15170 whole entry): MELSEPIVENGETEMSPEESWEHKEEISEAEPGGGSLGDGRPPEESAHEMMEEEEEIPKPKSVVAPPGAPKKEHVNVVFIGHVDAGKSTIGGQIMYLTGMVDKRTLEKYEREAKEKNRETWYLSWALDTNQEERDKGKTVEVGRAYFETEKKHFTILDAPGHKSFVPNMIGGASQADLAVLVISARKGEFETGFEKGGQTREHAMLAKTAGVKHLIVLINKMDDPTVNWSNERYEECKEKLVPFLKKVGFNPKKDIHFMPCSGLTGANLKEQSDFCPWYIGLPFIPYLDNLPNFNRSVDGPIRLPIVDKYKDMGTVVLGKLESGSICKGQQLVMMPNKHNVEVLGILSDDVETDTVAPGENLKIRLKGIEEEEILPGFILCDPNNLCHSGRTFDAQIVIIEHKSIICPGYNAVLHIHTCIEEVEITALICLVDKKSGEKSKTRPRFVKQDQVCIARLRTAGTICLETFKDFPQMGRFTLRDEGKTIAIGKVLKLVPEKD
# T2 sequence (Q96SW2 whole entry): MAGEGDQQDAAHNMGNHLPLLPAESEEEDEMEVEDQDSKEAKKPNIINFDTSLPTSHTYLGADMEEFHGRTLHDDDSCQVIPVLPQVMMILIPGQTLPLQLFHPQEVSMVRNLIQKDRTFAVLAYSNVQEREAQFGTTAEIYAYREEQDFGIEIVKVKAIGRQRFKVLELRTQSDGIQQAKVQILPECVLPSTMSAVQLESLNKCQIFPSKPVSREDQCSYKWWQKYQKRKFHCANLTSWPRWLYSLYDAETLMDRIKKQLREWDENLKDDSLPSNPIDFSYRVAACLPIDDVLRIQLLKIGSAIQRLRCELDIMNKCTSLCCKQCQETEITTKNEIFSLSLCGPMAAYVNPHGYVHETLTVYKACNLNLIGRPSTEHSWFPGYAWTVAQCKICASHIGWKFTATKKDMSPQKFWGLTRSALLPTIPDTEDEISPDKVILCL
# T2 sequence (Q16531 whole entry partner): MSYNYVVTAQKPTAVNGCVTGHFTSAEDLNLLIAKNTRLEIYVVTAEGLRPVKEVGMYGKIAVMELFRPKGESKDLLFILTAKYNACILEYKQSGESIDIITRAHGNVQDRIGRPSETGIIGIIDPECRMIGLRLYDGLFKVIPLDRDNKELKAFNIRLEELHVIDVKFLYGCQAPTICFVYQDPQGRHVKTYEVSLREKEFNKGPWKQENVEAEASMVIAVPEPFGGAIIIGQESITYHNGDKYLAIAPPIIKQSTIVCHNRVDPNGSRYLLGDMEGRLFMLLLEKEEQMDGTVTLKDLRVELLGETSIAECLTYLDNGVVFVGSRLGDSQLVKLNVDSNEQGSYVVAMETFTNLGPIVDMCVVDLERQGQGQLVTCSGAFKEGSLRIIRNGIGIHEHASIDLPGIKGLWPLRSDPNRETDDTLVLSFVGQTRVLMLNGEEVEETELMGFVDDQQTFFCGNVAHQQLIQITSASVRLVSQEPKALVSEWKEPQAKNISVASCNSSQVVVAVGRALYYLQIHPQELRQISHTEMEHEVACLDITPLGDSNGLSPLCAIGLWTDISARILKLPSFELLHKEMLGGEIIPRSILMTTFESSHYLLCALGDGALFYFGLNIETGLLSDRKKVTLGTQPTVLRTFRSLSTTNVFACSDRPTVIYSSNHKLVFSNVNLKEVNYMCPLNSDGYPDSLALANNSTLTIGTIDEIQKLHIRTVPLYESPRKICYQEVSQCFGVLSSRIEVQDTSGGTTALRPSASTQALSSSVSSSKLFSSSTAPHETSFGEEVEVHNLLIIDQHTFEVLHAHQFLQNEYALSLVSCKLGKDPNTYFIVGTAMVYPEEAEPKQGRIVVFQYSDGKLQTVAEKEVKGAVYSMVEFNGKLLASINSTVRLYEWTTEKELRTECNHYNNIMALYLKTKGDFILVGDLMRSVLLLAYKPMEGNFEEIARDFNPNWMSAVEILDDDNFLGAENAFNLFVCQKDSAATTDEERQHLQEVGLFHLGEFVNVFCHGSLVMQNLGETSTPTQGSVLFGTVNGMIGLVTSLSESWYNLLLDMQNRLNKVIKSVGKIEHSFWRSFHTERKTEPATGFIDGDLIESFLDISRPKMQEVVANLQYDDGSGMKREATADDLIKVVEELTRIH
# T6 sequence (Q9UKS7 whole entry): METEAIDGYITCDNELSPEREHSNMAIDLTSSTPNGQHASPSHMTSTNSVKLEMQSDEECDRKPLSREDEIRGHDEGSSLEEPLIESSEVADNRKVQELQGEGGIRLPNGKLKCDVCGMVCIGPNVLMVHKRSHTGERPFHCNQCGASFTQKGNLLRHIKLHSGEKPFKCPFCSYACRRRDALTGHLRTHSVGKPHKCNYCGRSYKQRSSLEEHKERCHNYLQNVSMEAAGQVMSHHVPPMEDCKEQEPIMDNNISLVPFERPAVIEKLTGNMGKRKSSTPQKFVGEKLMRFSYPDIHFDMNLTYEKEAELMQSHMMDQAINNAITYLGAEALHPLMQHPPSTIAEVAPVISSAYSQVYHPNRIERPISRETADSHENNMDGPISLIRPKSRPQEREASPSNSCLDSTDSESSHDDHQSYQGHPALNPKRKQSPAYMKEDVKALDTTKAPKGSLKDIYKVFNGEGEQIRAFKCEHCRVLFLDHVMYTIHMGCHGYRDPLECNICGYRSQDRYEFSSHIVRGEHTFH
# T6 sequence (Q96SW2 whole entry): as the sequence (Q96SW2 whole entry) above
# T6 sequence (Q16531 whole entry partner): as the sequence (Q16531 whole entry partner) above
# T1 sequence (Q9UKT9 whole entry): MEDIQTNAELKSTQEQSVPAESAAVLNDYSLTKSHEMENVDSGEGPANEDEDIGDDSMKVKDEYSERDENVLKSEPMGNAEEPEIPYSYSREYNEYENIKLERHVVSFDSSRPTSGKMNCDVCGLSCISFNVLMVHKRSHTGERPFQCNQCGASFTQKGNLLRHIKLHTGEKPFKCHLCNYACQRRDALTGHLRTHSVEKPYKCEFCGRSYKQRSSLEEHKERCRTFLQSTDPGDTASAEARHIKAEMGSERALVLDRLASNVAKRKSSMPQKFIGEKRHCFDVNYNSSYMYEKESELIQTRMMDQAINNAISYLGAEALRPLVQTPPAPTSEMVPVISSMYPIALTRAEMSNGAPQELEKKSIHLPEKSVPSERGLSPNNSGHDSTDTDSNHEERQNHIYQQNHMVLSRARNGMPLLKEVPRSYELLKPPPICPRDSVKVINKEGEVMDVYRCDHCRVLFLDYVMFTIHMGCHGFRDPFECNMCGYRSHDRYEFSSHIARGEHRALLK
# T1 sequence (Q96SW2 whole entry): as the sequence (Q96SW2 whole entry) above
# T1 sequence (Q16531 whole entry partner): as the sequence (Q16531 whole entry partner) above
# T5 sequence (Q13422 whole entry): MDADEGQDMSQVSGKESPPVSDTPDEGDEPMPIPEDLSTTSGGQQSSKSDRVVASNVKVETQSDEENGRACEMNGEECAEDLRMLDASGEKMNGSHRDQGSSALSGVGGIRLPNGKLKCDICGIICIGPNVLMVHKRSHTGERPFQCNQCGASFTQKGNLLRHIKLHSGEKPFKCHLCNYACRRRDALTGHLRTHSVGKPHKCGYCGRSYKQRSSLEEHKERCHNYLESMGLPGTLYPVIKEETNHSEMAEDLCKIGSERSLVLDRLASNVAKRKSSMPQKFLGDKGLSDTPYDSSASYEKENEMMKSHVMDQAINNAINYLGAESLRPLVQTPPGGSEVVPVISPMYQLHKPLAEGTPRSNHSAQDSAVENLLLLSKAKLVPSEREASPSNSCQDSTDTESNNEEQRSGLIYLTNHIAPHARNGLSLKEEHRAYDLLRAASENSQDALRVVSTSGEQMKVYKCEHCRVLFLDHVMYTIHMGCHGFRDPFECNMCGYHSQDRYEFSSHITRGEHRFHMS
# T5 sequence (Q96SW2 whole entry): as the sequence (Q96SW2 whole entry) above
# T5 sequence (Q16531 whole entry partner): as the sequence (Q16531 whole entry partner) above
# T3 sequence (P30291 whole entry): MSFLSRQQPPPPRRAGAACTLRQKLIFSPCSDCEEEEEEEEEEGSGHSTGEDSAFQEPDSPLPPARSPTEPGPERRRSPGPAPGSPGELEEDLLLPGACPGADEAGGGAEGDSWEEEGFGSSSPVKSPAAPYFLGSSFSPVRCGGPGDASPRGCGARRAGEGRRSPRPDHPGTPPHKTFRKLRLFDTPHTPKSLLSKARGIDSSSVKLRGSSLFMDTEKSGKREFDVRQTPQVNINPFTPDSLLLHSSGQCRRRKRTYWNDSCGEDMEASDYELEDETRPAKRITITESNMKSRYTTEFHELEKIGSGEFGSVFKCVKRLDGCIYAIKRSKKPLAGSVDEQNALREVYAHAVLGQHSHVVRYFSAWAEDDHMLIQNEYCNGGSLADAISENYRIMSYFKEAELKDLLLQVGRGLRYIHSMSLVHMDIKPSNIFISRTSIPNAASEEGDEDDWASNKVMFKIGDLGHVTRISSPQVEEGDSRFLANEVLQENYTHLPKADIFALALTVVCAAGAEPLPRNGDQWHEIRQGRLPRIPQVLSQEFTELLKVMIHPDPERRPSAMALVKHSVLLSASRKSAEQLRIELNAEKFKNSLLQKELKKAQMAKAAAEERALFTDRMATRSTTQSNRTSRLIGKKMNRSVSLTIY
# T3 sequence (Q96SW2 whole entry): as the sequence (Q96SW2 whole entry) above
# T3 sequence (Q16531 whole entry partner): as the sequence (Q16531 whole entry partner) above
smiles,measurement,setting,value
"O=C1CCC(N2C(=O)c3ccc(CN4CCN(c5nc(N6CCCCC6)nc6c5SCC6)CC4)cc3C2=O)C(=O)N1 (centres unmarked) [GT-08003, 2-(2,6-dioxopiperidin-3-yl)-5-((4-(2-(piperidin-1-yl)-6,7-dihydrothieno[3,2-d]pyrimidin-4-yl)piperazin-1-yl)methyl)isoindoline-1,3-dione]",inhibition at 0.01 µM,"[1]; MOLT-4, read-out: Inhibition rate (%) at 10 nM",20 to 30%
same,inhibition at 0.5 µM,"[1]; MOLT-4, read-out: Inhibition rate (%) at 500 nM",90 to 100%
same,IKZF3 substrate protein remaining %,[2],A (0% ≤ substrate protein remaining % ≤ 80%)
same,GSPT1 substrate protein remaining %,[3],A (0% ≤ substrate protein remaining % ≤ 80%)
same,Weel substrate protein remaining %,[4],B (80%< substrate protein remaining %≤ 100%)
same,inhibition at 0.01 µM,"[5]; Kasumi 1, read-out: Inhibition rate (%) at 10 nM",5 to 10%
same,inhibition at 0.5 µM,"[5]; Kasumi 1, read-out: Inhibition rate (%) at 500 nM",80 to 90%
same,CK1a substrate protein remaining %,[6],A (0% ≤ substrate protein remaining % ≤ 80%)
same,IKZF 1 substrate protein remaining %,[7],A (0% ≤ substrate protein remaining % ≤ 80%)
same,IKZF2 substrate protein remaining %,[8],A (0% ≤ substrate protein remaining % ≤ 80%)
same,inhibition at 0.01 µM,[9]; read-out: Inhibition rate (%) at 10 nM,20 to 30%
same,inhibition at 0.5 µM,[9]; read-out: Inhibition rate (%) at 500 nM,90 to 100%
same,inhibition at 0.01 µM,"[10]; MDA-MB-231, read-out: Inhibition rate (%) at 10 nM",30 to 40%
same,inhibition at 0.5 µM,"[10]; MDA-MB-231, read-out: Inhibition rate (%) at 500 nM",30 to 40%
